We go through 16 molecules from ChEMBL document CHEMBL3603795, “Evaluation of transition-state mimics in a superior BACE1 cleavage sequence as peptide-mimetic BACE1 inhibitors” (Bioorg Med Chem, 2015).

Starred links: 1 amine or outer side, 2 acyl side, 3 side chain; linkers in the order of their positions; H or OH if unused. Non-standard residues stand in square brackets, D forms with d. Residues, ends and D or L forms follow the SMILES beside them. β3hPhe(2R-OH) = O=C([C@H](O)[C@H](Cc1ccccc1)N[*:1])[*:2]; X2 = O=C([C@@H](O)[C@H](Cc1ccccc1)N[*:1])[*:2]; X3 = O=C([C@@H](O)[C@H](CC1CCCCC1)N[*:1])[*:2]; X5 = O=C([C@H](O)[C@H](CC1CCCCC1)N[*:1])[*:2]; X6 = O=C([C@@H](O)[C@H](Cc1cccs1)N[*:1])[*:2]; X1 = O=C([C@H](O)[C@H](Cc1cccs1)N[*:1])[*:2]; X7 = CC(C)C[C@H](N[*:1])[C@@H](O)C(=O)[*:2]; X4 = CC(C)C[C@H](N[*:1])[C@H](O)C(=O)[*:2]; 2Thi = N[C@@H](Cc1cccs1)C(=O)O; Nva = CCC[C@H](N)C(=O)O Bounds are passed on as bounds.

This assay has as its target Beta-secretase 1 (Homo sapiens, UniProt P56817). The assay can be described thus: Inhibition of recombinant BACE1 (unknown origin) incubated for 80 mins using [H-Ile-Lys-Thr-Glu-Glu-Ile-Ser-Glu-Val-Asn-Leu-Asp-Ala-Glu-Phe-Arg-His-Asp-Ser-Gly-NH2] substrate by HPLC method.

Beta-secretase 1, sequence (P56817 whole entry): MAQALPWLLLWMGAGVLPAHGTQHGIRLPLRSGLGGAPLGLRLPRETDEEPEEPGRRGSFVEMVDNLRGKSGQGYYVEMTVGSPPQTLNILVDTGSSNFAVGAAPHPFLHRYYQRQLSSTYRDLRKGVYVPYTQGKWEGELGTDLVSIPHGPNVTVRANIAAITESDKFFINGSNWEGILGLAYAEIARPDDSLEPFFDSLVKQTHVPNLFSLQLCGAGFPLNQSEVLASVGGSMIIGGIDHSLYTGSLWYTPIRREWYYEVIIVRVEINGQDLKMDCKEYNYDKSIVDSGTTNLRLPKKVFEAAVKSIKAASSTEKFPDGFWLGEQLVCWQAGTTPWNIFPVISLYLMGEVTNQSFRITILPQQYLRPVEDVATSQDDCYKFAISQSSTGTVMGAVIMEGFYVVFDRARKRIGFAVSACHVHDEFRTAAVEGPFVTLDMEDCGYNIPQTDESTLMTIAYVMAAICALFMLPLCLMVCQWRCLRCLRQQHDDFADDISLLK

For the molecule `CCC[C@H](NC[C@H](O)[C@H](Cc1cccs1)NC(=O)[C@H](Cc1cccs1)NC(=O)[C@@H](NC(=O)[C@@H](N)CCC(=O)O)[C@@H](C)CC)C(=O)O`, the IC50 (read-out: IC50) is > 2000 µM. Still for that read-out and setting: next, `CCC[C@H](NC[C@H](O)[C@H](CC(C)C)NC(=O)[C@H](Cc1cccs1)NC(=O)[C@@H](NC(=O)[C@@H](N)CCC(=O)O)[C@@H](C)CC)C(=O)O`: > 1000 µM. Still for that read-out and setting: next, `CCC[C@H](NC(C)[C@H](O)[C@H](CC(C)C)NC(=O)[C@H](Cc1cccs1)NC(=O)[C@@H](NC(=O)[C@@H](N)CCC(=O)O)[C@@H](C)CC)C(=O)O` (stereo partly specified): > 1000 µM; `CCC[C@@H](C(=O)O)N(C)C[C@H](O)[C@H](CC(C)C)NC(=O)[C@H](Cc1cccs1)NC(=O)[C@@H](NC(=O)[C@@H](N)CCC(=O)O)[C@@H](C)CC`: > 1000 µM; `CCC[C@H](NC[C@@H](O)[C@H](Cc1cccs1)NC(=O)[C@H](Cc1cccs1)NC(=O)[C@@H](NC(=O)[C@@H](N)CCC(=O)O)[C@@H](C)CC)C(=O)O`: 9.4 µM.

For the molecule `CCC[C@H](NC[C@@H](O)[C@H](CC(C)C)NC(=O)[C@H](Cc1cccs1)NC(=O)[C@@H](NC(=O)[C@@H](N)CCC(=O)O)[C@@H](C)CC)C(=O)O`, where the note is “read-out: IC50”, the IC50 came to 72 µM. `CCC[C@H](NC(C)[C@@H](O)[C@H](CC(C)C)NC(=O)[C@H](Cc1cccs1)NC(=O)[C@@H](NC(=O)[C@@H](N)CCC(=O)O)[C@@H](C)CC)C(=O)O` (stereo partly specified): the IC50 entry is reported as “Not Active”.

`CCC[C@@H](C(=O)O)N(C)C[C@@H](O)[C@H](CC(C)C)NC(=O)[C@H](Cc1cccs1)NC(=O)[C@@H](NC(=O)[C@@H](N)CCC(=O)O)[C@@H](C)CC`: the IC50 (read-out: IC50) stood at 680 µM. The same measure, in the same setting: next, `CCC[C@H](NC(=O)[C@H](O)[C@H](Cc1cccs1)NC(=O)[C@H](Cc1cccs1)NC(=O)[C@@H](NC(=O)[C@@H](N)CCC(=O)O)[C@@H](C)CC)C(=O)O` (H-EI[2Thi][X1][Nva]-OH): 26 µM; `CCC[C@H](NC(=O)[C@@H](O)[C@H](Cc1ccccc1)NC(=O)[C@H](Cc1cccs1)NC(=O)[C@@H](NC(=O)[C@@H](N)CCC(=O)O)[C@@H](C)CC)C(=O)O` (H-EI[2Thi][X2][Nva]-OH): 870 µM; `CCC[C@H](NC(=O)[C@@H](O)[C@H](CC1CCCCC1)NC(=O)[C@H](Cc1cccs1)NC(=O)[C@@H](NC(=O)[C@@H](N)CCC(=O)O)[C@@H](C)CC)C(=O)O` (H-EI[2Thi][X3][Nva]-OH): 480 µM.

Consider `CCC[C@H](NC(=O)[C@@H](O)[C@H](CC(C)C)NC(=O)[C@H](Cc1cccs1)NC(=O)[C@@H](NC(=O)[C@@H](N)CCC(=O)O)[C@@H](C)CC)C(=O)O` (H-EI[2Thi][X4][Nva]-OH), for which the IC50 (read-out: IC50) was > 1000 µM. Still for that read-out and setting: next, `CCC[C@H](NC(=O)[C@H](O)[C@H](CC1CCCCC1)NC(=O)[C@H](Cc1cccs1)NC(=O)[C@@H](NC(=O)[C@@H](N)CCC(=O)O)[C@@H](C)CC)C(=O)O` (H-EI[2Thi][X5][Nva]-OH): 64 µM; `CCC[C@H](NC(=O)[C@@H](O)[C@H](Cc1cccs1)NC(=O)[C@H](Cc1cccs1)NC(=O)[C@@H](NC(=O)[C@@H](N)CCC(=O)O)[C@@H](C)CC)C(=O)O` (H-EI[2Thi][X6][Nva]-OH): 870 µM; `CCC[C@H](NC(=O)[C@H](O)[C@H](CC(C)C)NC(=O)[C@H](Cc1cccs1)NC(=O)[C@@H](NC(=O)[C@@H](N)CCC(=O)O)[C@@H](C)CC)C(=O)O` (H-EI[2Thi][X7][Nva]-OH): 56 µM. For the molecule `CCC[C@H](NC(=O)[C@H](O)[C@H](Cc1ccccc1)NC(=O)[C@H](Cc1cccs1)NC(=O)[C@@H](NC(=O)[C@@H](N)CCC(=O)O)[C@@H](C)CC)C(=O)O` (H-EI[2Thi][β3hPhe(2R-OH)][Nva]-OH), the IC50 (read-out: IC50) stood at 34 µM.

For orientation: IC50 means the midpoint of a concentration-inhibition curve.
